Data: patent US20250206738A1, “WRN INHIBITORS” (Nimbus Wadjet, Inc., priority 2023, published 2025)

Target: T1, human Werner helicase (WRN, Uniprot Q14191, amino acids 517-1235 with L1074F point mutation; WRN-BV08) (Homo sapiens, UniProt Q14191, L1074F)
T1 construct: Uniprot Q14191, amino acids 517-1235 with L1074F point mutation; 8xHis (C, cleaved yes); TEV cleavage site (ENLYFQG) (C, cleaved yes); made in house; host or cells: Sf9 insect cells (baculovirus, pFastBac)
Assay: WRN (BV08) ADP-Glo assay
Format: biochemical
Conditions: WRN-BV08 (aa 517-1235, L1074F); read-out: ADP-Glo_hWRN_IC50
Source text: Example 2: WRN (BV08) ADP-Glo Assay Protocol
Bovine skin gelatin (BSG), dimethyl sulfoxide (DMSO), Pluronic F-127 and tris(2-carboxyethyl)phosphine hydrochloride solution (TCEP) were purchased from Sigma-Aldrich (St. Louis, MO) at the highest level of purity possible. Bicine buffer solution was purchased from Alfa Aesar (Tewksbury, MA) and compound NSC-617145 was purchased from Tocris (Minneapolis, MN). DNA duplex was synthesized at BGI (Shenzhen, China) and was composed of strand 1 with the sequence 5′-[…]-3′ (SEQ ID NO.: 1) and strand 2 with the sequence 5′-[…]-3′ (SEQ ID NO.: 2). DNA strands were annealed by heating to 95° C. for 5 minutes followed by slow cooling to room temperature. Compounds in 100% DMSO ([…]) were spotted into a 384-well white polystyrene Optiplate-384 (Perkin Elmer; Waltham, MA) assay plate using a LabCyte Echo 550 (Agilent; Santa Clara, CA). DMSO ([…]) was added to columns 12, rows A-H and column 24, rows I-P for the maximum signal control. Compound NSC-617145 ([…]) was added to columns 12, rows I-P and 24, rows A-H for the minimum signal control (100% inhibition). Compounds/DMSO were preincubated for 15 minutes at 25° C. with […] 2×WRN (BV08), prepared as described below, in assay buffer containing 20 mM Bicine (pH=7.5), 1 mM MgCl2, 10 mM KCl, 0.1% Pluronic F-127, 0.005% BSG, 1 mM TCEP. The reaction was initiated by the addition of […] 2× substrate mixture in assay buffer and incubated for 60 minutes at 25° C. The final concentrations of the assay components were 0.15 nM WRN, […], and 0.1 nM DNA duplex. The final DMSO concentration was 1% and the reference compound concentration (NSC-617145) used for the minimal signal control was […]. The reaction was stopped by the addition of the ADP-Glo Kit components (Promega; Madison, WI) as directed and the relative luminescence units (RLU) were read on an Envision 2104 (Perkin Elmer; Waltham, MA).
% Inhibition Calculation:
Where RLU=relative luminescence units, sample=signal in sample well, and MIN and MAX are the respective minimum and maximum signal controls.
Four-Parameter IC50 Fit Equation:
Where top and bottom are normally allowed to float but may be fixed at 100 or 0 respectively in a 3-parameter fit. Y is the % inhibition and X is the compound concentration.
Molecular Biology and virus production. The DNA encoding human Werner helicase (Uniprot Q14191, amino acids 517-1235 with L1074F point mutation) was generated with codon-optimization for […] expression and subcloned into the pFastBac vector with a TEV cleavable 8×His tag (SEQ ID NO: 5) (WRN—BV08). The baculovirus from the expression plasmid WRN—BV08 was generated from transfection and amplification following the manufacturer's instructions.
Sf9 cells grown in SF900II media were infected with 1:200 WRN—BV08 P2 virus and incubated for protein expression for 72 h at 27° C. The WRN protein was purified using the following protocol. The cell pellets were thawed and resuspended in buffer A (50 mM Tris, pH 7.5, 500 mM NaCl, 1 mM TCEP, 10% Glycerol) supplemented with 0.5% CHAPS, 1 mM PMSF, 1 μg/ml Leupeptin, 1 μg/ml Pepstatin, and the Pierce Universal Nuclease and cocktail tablet. Cleared lysates were loaded onto a Ni Sepharose™ excel column and washed with buffer A and bound protein was eluted with buffer A supplemented with 300 mM imidazole. The eluted protein was dialyzed against buffer A and digested by His-tagged TEV (1:5 ratio) overnight at 4° C. ZnCl2 was added into the sample at final 15 μM before loading onto a second Ni Sepharose™ excel column. Untagged WRN protein was eluted from the column with buffer A supplemented with 20 mM imidazole, dialyzed overnight into buffer B (50 mM Tris, pH 7.5, 1 mM TCEP, 10% Glycerol) supplemented with 150 mM NaCl and loaded onto a Heparin column. Proteins were eluted with a step gradient of buffer B supplemented with 150 mM, 200 mM, 300 mM and 500 mM NaCl. […]

T1 sequence (Q14191 with tags, fused parts or gaps L1074F): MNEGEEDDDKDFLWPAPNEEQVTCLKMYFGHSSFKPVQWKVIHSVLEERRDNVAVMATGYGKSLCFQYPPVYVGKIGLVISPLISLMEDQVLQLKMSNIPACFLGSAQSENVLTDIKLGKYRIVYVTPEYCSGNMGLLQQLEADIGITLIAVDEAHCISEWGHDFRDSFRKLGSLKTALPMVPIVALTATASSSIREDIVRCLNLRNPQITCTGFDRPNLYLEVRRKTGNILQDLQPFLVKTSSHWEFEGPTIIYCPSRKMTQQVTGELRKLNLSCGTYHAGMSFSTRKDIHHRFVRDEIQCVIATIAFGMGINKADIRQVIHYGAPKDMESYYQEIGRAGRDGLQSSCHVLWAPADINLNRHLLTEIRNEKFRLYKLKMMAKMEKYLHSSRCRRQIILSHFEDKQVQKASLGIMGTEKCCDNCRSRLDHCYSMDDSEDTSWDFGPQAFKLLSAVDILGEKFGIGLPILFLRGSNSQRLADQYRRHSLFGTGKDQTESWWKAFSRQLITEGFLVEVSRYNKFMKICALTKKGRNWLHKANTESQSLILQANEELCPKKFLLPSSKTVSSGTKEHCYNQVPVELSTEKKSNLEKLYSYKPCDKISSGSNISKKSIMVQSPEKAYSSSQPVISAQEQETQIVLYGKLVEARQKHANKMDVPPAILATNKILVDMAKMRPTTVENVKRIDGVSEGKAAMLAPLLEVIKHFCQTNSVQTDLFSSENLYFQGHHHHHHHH

SMILES | IC50 [nM]
CCc1c(N2CCN(C(=O)c3ncnc(C)c3O)[C@H]3CC[C@@H]32)c(=O)c2nn(C3=CCOC(C)C3)nc2n1CC(=O)NC12CC(C3CC3)(C1)C2 (stereo partly drawn) [I-162, N-{3-cyclopropylbicyclo[1.1.1]pentan-1-yl}-2-{5-ethyl-6-[(1S,6S)-5-(5-hydroxy-6-methylpyrimidine-4-carbonyl)-2,5-diazabicyclo[4.2.0]octan-2-yl]-2-(2-methyl-3,6-dihydro-2H-pyran-4-yl)-7-oxo-2H,4H,7H-[1,2,3]triazolo[4,5-b]pyridin-4-yl}acetamide] | 5 to 50
CCc1c(N2CCN(C(=O)c3ncnc(C)c3O)[C@H]3CC[C@@H]32)c(=O)c2nn(C3=CCC(OC)CC3)nc2n1CC(=O)NC12CC(C3CC3)(C1)C2 (stereo partly drawn) [I-163, N-{3-cyclopropylbicyclo[1.1.1]pentan-1-yl}-2-{5-ethyl-6-[(1S,6S)-5-(5-hydroxy-6-methylpyrimidine-4-carbonyl)-2,5-diazabicyclo[4.2.0]octan-2-yl]-2-(4-methoxycyclohex-1-en-1-yl)-7-oxo-2H,4H,7H-[1,2,3]triazolo[4,5-b]pyridin-4-yl}acetamide] | 5 to 50
CCc1c(N2CCN(C(=O)c3ncnc(C)c3O)[C@H]3CC[C@@H]32)c(=O)c2nn(-c3ccnc(C(F)(F)F)c3)nc2n1CC(=O)NC12CC(C3CC3)(C1)C2 [I-165, N-{3-cyclopropylbicyclo[1.1.1]pentan-1-yl}-2-{5-ethyl-6-[(1S,6S)-5-(5-hydroxy-6-methylpyrimidine-4-carbonyl)-2,5-diazabicyclo[4.2.0]octan-2-yl]-7-oxo-2-[2-(trifluoromethyl)pyridin-4-yl]-2H,4H,7H-[1,2,3]triazolo[4,5-b]pyridin-4-yl}acetamide] | 5 to 50
CCc1c(N2CCN(C(=O)c3c(OC)ncc(F)c3O)[C@H]3CC[C@@H]32)c(=O)c2nn(-c3ccnc(OC)c3)nc2n1CC(=O)NC12CC(C(C)C)(C1)C2 [I-166, 2-{5-ethyl-6-[(1S,6S)-5-(5-fluoro-4-hydroxy-2-methoxypyridine-3-carbonyl)-2,5-diazabicyclo[4.2.0]octan-2-yl]-2-(2-methoxypyridin-4-yl)-7-oxo-2H,4H,7H-[1,2,3]triazolo[4,5-b]pyridin-4-yl}-N-[3-(propan-2-yl)bicyclo[1.1.1]pentan-1-yl]acetamide] | ≤ 5
CCc1c(N2CCN(C(=O)c3ncnc(C)c3O)[C@H]3CC[C@@H]32)c(=O)c2nn(-c3ccnc(C(F)F)c3)nc2n1CC(=O)NC12CC(C3CC3)(C1)C2 [I-171, N-{3-cyclopropylbicyclo[1.1.1]pentan-1-yl}-2-{2-[2-(difluoromethyl)pyridin-4-yl]-5-ethyl-6-[(1S,6S)-5-(5-hydroxy-6-methylpyrimidine-4-carbonyl)-2,5-diazabicyclo[4.2.0]octan-2-yl]-7-oxo-2H,4H,7H-[1,2,3]triazolo[4,5-b]pyridin-4-yl}acetamide] | 5 to 50
CCc1c(N2CCN(C(=O)c3c(F)cnc(OC)c3O)[C@H]3CC[C@@H]32)c(=O)c2nn(C3=CCOCC3)nc2n1CC(=O)NC12CC(C3CC3)(C1)C2 [I-172, N-{3-cyclopropylbicyclo[1.1.1]pentan-1-yl}-2-[2-(3,6-dihydro-2H-pyran-4-yl)-5-ethyl-6-[(1S,6S)-5-(5-fluoro-3-hydroxy-2-methoxypyridine-4-carbonyl)-2,5-diazabicyclo[4.2.0]octan-2-yl]-7-oxo-2H,4H,7H-[1,2,3]triazolo[4,5-b]pyridin-4-yl]acetamide] | 5 to 50
CCc1c(N2CCN(C(=O)c3ncnc(C)c3O)[C@H]3CC[C@@H]32)c(=O)c2nn(C3=CCN(CC(F)F)CC3)nc2n1CC(=O)NC12CC(C3CC3)(C1)C2 [I-174, N-{3-cyclopropylbicyclo[1.1.1]pentan-1-yl}-2-{2-[1-(2,2-difluoroethyl)-1,2,3,6-tetrahydropyridin-4-yl]-5-ethyl-6-[(1S,6S)-5-(5-hydroxy-6-methylpyrimidine-4-carbonyl)-2,5-diazabicyclo[4.2.0]octan-2-yl]-7-oxo-2H,4H,7H-[1,2,3]triazolo[4,5-b]pyridin-4-yl}acetamide] | 5 to 50
CCc1c(N2CCN(C(=O)c3ncnc(C)c3O)[C@H]3CC[C@@H]32)c(=O)c2nn(-c3ccnc(OC)c3)cc2n1CC(=O)NC12CC(C3CC3)(C1)C2 [I-177, N-{3-cyclopropylbicyclo[1.1.1]pentan-1-yl}-2-{5-ethyl-6-[(1S,6S)-5-(5-hydroxy-6-methylpyrimidine-4-carbonyl)-2,5-diazabicyclo[4.2.0]octan-2-yl]-2-(2-methoxypyridin-4-yl)-7-oxo-2H,4H,7H-pyrazolo[4,3-b]pyridin-4-yl}acetamide] | 5 to 50
CCc1c(N2CCN(C(=O)c3c(OC)ccc4ncoc34)[C@H]3CC[C@@H]32)c(=O)c2nn(C3=CCOCC3)nc2n1CC(=O)NC12CC(C3CC3)(C1)C2 [I-180, N-{3-cyclopropylbicyclo[1.1.1]pentan-1-yl}-2-[2-(3,6-dihydro-2H-pyran-4-yl)-5-ethyl-6-[(1S,6S)-5-(6-methoxy-1,3-benzoxazole-7-carbonyl)-2,5-diazabicyclo[4.2.0]octan-2-yl]-7-oxo-2H,4H,7H-[1,2,3]triazolo[4,5-b]pyridin-4-yl]acetamide] | 5 to 50
CCc1c(N2CCN(C(=O)c3c(O)c(F)cc4ncoc34)[C@H]3CC[C@@H]32)c(=O)c2nn(C3=CCOCC3)nc2n1CC(=O)NC12CC(C3CC3)(C1)C2 [I-182, N-{3-cyclopropylbicyclo[1.1.1]pentan-1-yl}-2-[2-(3,6-dihydro-2H-pyran-4-yl)-5-ethyl-6-[(1S,6S)-5-(5-fluoro-6-hydroxy-1,3-benzoxazole-7-carbonyl)-2,5-diazabicyclo[4.2.0]octan-2-yl]-7-oxo-2H,4H,7H-[1,2,3]triazolo[4,5-b]pyridin-4-yl]acetamide] | 5 to 50
CCc1c(N2CCN(C(=O)c3ncnc(C)c3O)[C@H]3CC[C@@H]32)c(=O)c2nn(-c3ccnc(OC)c3)nc2n1CC(=O)NC12CC(C3CCCC3)(C1)C2 [I-183, N-{3-cyclopentylbicyclo[1.1.1]pentan-1-yl}-2-{5-ethyl-6-[(1S,6S)-5-(5-hydroxy-6-methylpyrimidine-4-carbonyl)-2,5-diazabicyclo[4.2.0]octan-2-yl]-2-(2-methoxypyridin-4-yl)-7-oxo-2H,4H,7H-[1,2,3]triazolo[4,5-b]pyridin-4-yl}acetamide] | ≤ 5
CCc1c(N2CCN(C(=O)c3ncnc(C)c3O)[C@H]3CC[C@@H]32)c(=O)c2nn(C3=CCOCC3)nc2n1CC(=O)NC12CC(C(C)(C)C)(C1)C2 [I-184, N-{3-tert-butylbicyclo[1.1.1]pentan-1-yl}-2-[2-(3,6-dihydro-2H-pyran-4-yl)-5-ethyl-6-[(1S,6S)-5-(5-hydroxy-6-methylpyrimidine-4-carbonyl)-2,5-diazabicyclo[4.2.0]octan-2-yl]-7-oxo-2H,4H,7H-[1,2,3]triazolo[4,5-b]pyridin-4-yl]acetamide] | 5 to 50
